Usually EC50 stands for the concentration at which the effect is half-maximal.

Each structure is given as a SMILES string. Like-named read-outs stand apart in the source and are kept apart here.

This assay concerns HCV pseudoparticles (genotype 1a HCV E1 and E2 envelope, H77C isolate). Kind of assay: microbe, parasite or virus in culture. The following applies: Hepatitis C virus. It counts as cell-based.
The mark [1] stands for this setting: Huh-7, 48 h, read-out: Activity (EC50 class), HCV pseudoparticle infection of Huh7 cells, luciferase 2 days after infection, EC50 expressed as class A/B.
Where [2] appears, read: Huh-7, 48 h, read-out: Activity (EC50 class), HCV pseudoparticles, Huh7 cells, luciferase 2 days after infection, average of duplicates.
Setting [3] is: Huh-7, read-out: Activity (EC50 class), HCV pseudoparticles (genotype 1a, H77C) in Huh7 cells, EC50 expressed as class A/B.
Where [4] appears, read: Huh-7, 48 h, HCV pseudoparticle infection of Huh7 cells, luciferase 2 days after infection, average of duplicates.
The mark [5] stands for this setting: Huh-7, 48 h, HCV pseudoparticles (genotype 1a, H77C) in Huh7 cells, average of duplicate, luciferase 2 days after infection.

With `CCOC(=O)[C@H](CCNC(=O)C(=O)NCC1CC1)NC(=O)c1ccc(Nc2nc(NC3(c4ccc(Cl)cc4)CC3)nc(OCC(F)(F)F)n2)cc1` [Compound 1369], the EC50 under setting [1] fell in the range of 0.01 to 10 nM. `COC(=O)[C@H](CNC(=O)C(=O)Nc1cccc(-c2ncc[nH]2)c1)NC(=O)c1ccc(Nc2nc(NC3(c4ccc(Cl)cc4)CC3)nc(OCC(F)(F)F)n2)cc1` [Compound 3709]: the concentration giving a half-maximal response (EC50) reads like this: (Huh-7, 48 h, HCV pseudoparticles, Huh7 cells, luciferase 2 days after infection, average of duplicates) 0.71 nM; under setting [2], 0.01 to 10 nM. As for `COc1cc(NC(=O)C(=O)NCC(C)(C)CNC(=O)c2ccc(Nc3nc(NC4(c5ccc(Cl)cc5)CC4)nc(OCC(F)(F)F)n3)cc2)ccc1F` [Compound 3069], under setting [3], the EC50 lay within 0.01 to 10 nM. `CC(C)(CNC(=O)C(=O)Nc1ccc(-c2cccc(Cl)c2)cc1)CNC(=O)c1ccc(Nc2nc(NC3(c4ccc(Cl)cc4)CC3)nc(OCC(F)(F)F)n2)cc1` [Compound 1588]: the EC50 under setting [1] is 0.01 to 10 nM. With `COC(=O)[C@H](CNC(=O)C(=O)Nc1ccc(N2CCN(Cc3ccccc3)CC2)cc1)NC(=O)c1ccc(Nc2nc(NC3(c4ccc(Cl)cc4)CC3)nc(OCC(F)(F)F)n2)cc1` [Compound 3102], the EC50 under setting [3] lay in the range of 0.01 to 10 nM. Turning to `COC(=O)[C@H](CNC(=O)C(=O)Nc1ccc(OC)cc1)NC(=O)c1ccc(Nc2nc(NC3(c4ccc(Cl)cc4)CC3)nc(OCC(F)(F)F)n2)cc1` [Compound 1254], the EC50 was 0.37 nM under setting [4] and 0.01 to 10 nM under setting [1].

In the case of `CC(C)(CNC(=O)C(=O)Nc1ccc2cccnc2c1)CNC(=O)c1ccc(Nc2nc(NC3(c4ccc(Cl)cc4)CC3)nc(OCC(F)(F)F)n2)cc1` [Compound 3034], the EC50 by setting is: under setting [5], 0.04 nM; under setting [3], 0.01 to 10 nM. In the case of `CC(NC(=O)C(=O)NCC[C@H](NC(=O)c1ccc(Nc2nc(NC3(c4ccc(Cl)cc4)CC3)nc(OCC(F)(F)F)n2)cc1)C(=O)O)C1CC1` (stereo partly drawn) [Compound 1440], the half-maximal effective concentration (EC50) under setting [1] was in the range of 0.01 to 10 nM.

Consider `COC(=O)[C@H](CCNC(=O)C(=O)Nc1cccc(CCC(N)O)c1)NC(=O)c1ccc(Nc2nc(NC3(c4ccc(Cl)cc4)CC3)nc(OCC(F)(F)F)n2)cc1` (stereo partly drawn) [Compound 3609], for which the EC50 under setting [2] is 0.01 to 10 nM. Turning to `CCOc1ccc(NC(=O)C(=O)NCC(C)(C)CNC(=O)c2ccc(Nc3nc(NC4(c5ccc(Cl)cc5)CC4)nc(OCC(F)(F)F)n3)cc2)cc1` [Compound 3062], the EC50 under setting [3] was 0.01 to 10 nM. In the case of `O=C(NCC[C@H](NC(=O)c1ccc(Nc2nc(NC3(c4ccc(Cl)cc4)CC3)nc(OCC(F)(F)F)n2)cc1)C(=O)O)C(=O)Nc1cccc(F)c1` [Compound 1269], the EC50 under setting [1] was in the range of 0.01 to 10 nM. Regarding `CC(C)(CNC(=O)C(=O)Nn1cccc1)CNC(=O)c1ccc(Nc2nc(NC3(c4ccc(Cl)cc4)CC3)nc(OCC(F)(F)F)n2)cc1` [Compound 3242], the half-maximal effective concentration (EC50) by setting is: under setting [5], 0.03 nM; under setting [3], 0.01 to 10 nM. On to `CC(C)(CNC(=O)C(=O)Nc1nc2c(Cl)c(Cl)ccc2s1)CNC(=O)c1ccc(Nc2nc(NC3(c4ccc(Cl)cc4)CC3)nc(OCC(F)(F)F)n2)cc1` [Compound 3821], for which the EC50 under setting [2] lay within 0.01 to 10 nM. In the case of `CC(C)(CNC(=O)C(=O)Nc1ccccc1C(=O)N1CCCCC1)CNC(=O)c1ccc(Nc2nc(NC3(c4ccc(Cl)cc4)CC3)nc(OCC(F)(F)F)n2)cc1` [Compound 3063], the EC50 under setting [3] lay within 0.01 to 10 nM. With `CN1CCN(CC2(CNC(=O)C(=O)NCC[C@H](NC(=O)c3ccc(Nc4nc(NC5(c6ccc(Cl)cc6)CC5)nc(OCC(F)(F)F)n4)cc3)C(=O)O)CC2)CC1` [Compound 1432], under setting [1], the EC50 was 0.01 to 10 nM. With `COC(=O)[C@H](CNC(=O)C(=O)Nc1ccc(-n2ccc(C(F)(F)F)n2)cc1)NC(=O)c1ccc(Nc2nc(NC3(c4ccc(Cl)cc4)CC3)nc(OCC(F)(F)F)n2)cc1` [Compound 3098], under setting [3], the EC50 lay in the range of 0.01 to 10 nM. As for `COC(=O)[C@H](CCNC(=O)C(=O)Nc1ccc(O)nc1)NC(=O)c1ccc(Nc2nc(NC3(c4ccc(Cl)cc4)CC3)nc(OCC(F)(F)F)n2)cc1` [Compound 1520], the concentration for a half-maximal effect (EC50) under setting [1] lay in the range of 0.01 to 10 nM. On to `CCOC(=O)[C@H](CNC(=O)C(=O)NC)NC(=O)c1ccc(Nc2nc(NC3(c4ccc(Cl)cc4)CC3)nc(OCC(F)(F)F)n2)cc1` [Compound 1024, (S)-ethyl 2-(4-(4-(1-(4-chlorophenyl)cyclopropylamino)-6-(2,2,2-trifluoroethoxy)-1,3,5-triazin-2-ylamino)benzamido)-3-(2-(methylamino)-2-oxoacetamido)propanoate], for which the EC50 under setting [1] fell in the range of 0.01 to 10 nM. Same read-out and setting: with `COc1ccc(CNC(=O)C(=O)NCC[C@H](NC(=O)c2ccc(Nc3nc(NC4(c5ccc(Cl)cc5)CC4)nc(OCC(F)(F)F)n3)cc2)C(=O)O)cc1OC` [Compound 1184] the figure was 0.01 to 10 nM.

With `O=C(NCC[C@H](NC(=O)c1ccc(Nc2nc(NC3(c4ccc(Cl)cc4)CC3)nc(OCC(F)(F)F)n2)cc1)C(=O)O)C(=O)Nc1cccnc1` [Compound 1280], the EC50 under setting [1] lay in the range of 0.01 to 10 nM. Still for that read-out and setting: with `O=C(NCC[C@@H](NC(=O)c1ccc(Nc2nc(NC3(c4ccc(Cl)cc4)CC3)nc(OCC(F)(F)F)n2)cc1)C(=O)O)C(=O)Nc1ccccc1-c1ccccc1` [Compound 1532] the figure was 0.01 to 10 nM; with `CC1CCCC(NC(=O)C(=O)NC[C@H](NC(=O)c2ccc(Nc3nc(NC4(c5ccc(Cl)cc5)CC4)nc(OCC(F)(F)F)n3)cc2)C(=O)O)C1` (stereo partly drawn) [Compound 1087], 0.01 to 10 nM. `COC(=O)[C@H](CCNC(=O)C(=O)Nc1ccc(N2Cc3ccccc3C2)cc1)NC(=O)c1ccc(Nc2nc(NC3(c4ccc(Cl)cc4)CC3)nc(OCC(F)(F)F)n2)cc1` [Compound 3306]: under setting [3], the EC50 is 0.01 to 10 nM.

Regarding `Cc1ccc(-c2ccc(NC(=O)C(=O)NCCC(NC(=O)c3ccc(Nc4nc(NC5(c6ccc(Cl)cc6)CC5)nc(OCC(F)(F)F)n4)cc3)C(=O)O)cc2)cc1` (stereo not drawn) [Compound 3526], under setting [3], the EC50 was in the range of 0.01 to 10 nM. Still for that read-out and setting: with `CN(CCCN(C)C(=O)c1ccc(Nc2nc(NC3(c4ccc(Cl)cc4)CC3)nc(OCC(F)(F)F)n2)cc1)C(=O)C(=O)NCc1ccc(F)cc1` [Compound 3413] the figure was 10 to 1000 nM. `CC(C)(CNC(=O)C(=O)Nc1ccc(C(=O)O)cc1)CNC(=O)c1ccc(Nc2nc(NC3(c4ccc(Cl)cc4)CC3)nc(OCC(F)(F)F)n2)cc1` [Compound 1457]: the EC50 under setting [1] fell in the range of 0.01 to 10 nM. On the same count and under the same terms, for `COC(=O)[C@H](CCNC(=O)C(=O)NCC1CCCCC1)NC(=O)c1ccc(Nc2nc(NC3(c4ccc(Cl)cc4)CC3)nc(OCC(F)(F)F)n2)cc1` [Compound 1143] the value was 0.01 to 10 nM. As for `Cc1csc(-c2cccc(NC(=O)C(=O)NCC[C@H](NC(=O)c3ccc(Nc4nc(NC5(c6ccc(Cl)cc6)CC5)nc(OCC(F)(F)F)n4)cc3)C(=O)O)c2)n1` [Compound 3649], the EC50 under setting [2] fell in the range of 0.01 to 10 nM. With `O=C(NC[C@H](NC(=O)c1ccc(Nc2nc(NC3(c4ccc(Cl)cc4)CC3)nc(OCC(F)(F)F)n2)cc1)C(=O)O)C(=O)Nc1ccc(Oc2ccncc2)cc1` [Compound 3289], the concentration for a half-maximal effect (EC50) by setting is: under setting [5], 2.53 nM; under setting [3], 0.01 to 10 nM.

Turning to `CC(C)(CNC(=O)C(=O)Nc1cccc(C(=O)Nc2ccccc2)c1)CNC(=O)c1ccc(Nc2nc(NC3(c4ccc(Cl)cc4)CC3)nc(OCC(F)(F)F)n2)cc1` [Compound 3669], under setting [2], the EC50 lay within 0.01 to 10 nM.

Regarding `Cc1nccn1CCNC(=O)C(=O)NC[C@H](NC(=O)c1ccc(Nc2nc(NC3(c4ccc(Cl)cc4)CC3)nc(OCC(F)(F)F)n2)cc1)C(=O)O` [Compound 1412], the EC50 under setting [1] was 10 to 1000 nM. For the molecule `CCCNc1ccc(NC(=O)C(=O)NCC[C@H](NC(=O)c2ccc(Nc3nc(NC4(c5ccc(Cl)cc5)CC4)nc(OCC(F)(F)F)n3)cc2)C(=O)O)cn1` [Compound 3657], under setting [2], the concentration for a half-maximal effect (EC50) is 0.01 to 10 nM. For `O=C(NC[C@H](NC(=O)c1ccc(Nc2nc(NC3(c4ccc(Cl)cc4)CC3)nc(OCC(F)(F)F)n2)cc1)C(=O)O)C(=O)Nc1cccc(S(=O)(=O)c2ccccc2)c1` [Compound 3757], under setting [2], the EC50 is 0.01 to 10 nM.

On to `COC(=O)[C@H](CCNC(=O)C(=O)NCC1CC1c1cc(F)ccc1F)NC(=O)c1ccc(Nc2nc(NC3(c4ccc(Cl)cc4)CC3)nc(OCC(F)(F)F)n2)cc1` (stereo partly drawn) [Compound 1373], for which the EC50 under setting [1] was 0.01 to 10 nM. The same measure, in the same setting: for `CC(C)(CNC(=O)C(=O)Nc1cccc(-c2ccccc2)c1)CNC(=O)c1ccc(Nc2nc(NC3(c4ccc(Cl)cc4)CC3)nc(OCC(F)(F)F)n2)cc1` [Compound 1582] the value was 0.01 to 10 nM; for `CCOC(=O)[C@H](CCCNC(=O)C(=O)N(C)C)NC(=O)c1ccc(Nc2nc(NC3(c4ccc(Cl)cc4)CC3)nc(OCC(F)(F)F)n2)cc1` [Compound 1031, (S)-ethyl 2-(4-(4-(1-(4-chlorophenyl)cyclopropylamino)-6-(2,2,2-trifluoroethoxy)-1,3,5-triazin-2-ylamino)benzamido)-5-(2-(dimethylamino)-2-oxoacetamido)pentanoate], 0.01 to 10 nM. On to `O=C(Nc1ccc(F)cc1F)C(=O)N1CCCC(CNC(=O)c2ccc(Nc3nc(NC4(c5ccc(Cl)cc5)CC4)nc(OCC(F)(F)F)n3)cc2)C1` (stereo not drawn) [Compound 3484], for which the EC50 under setting [3] was 0.01 to 10 nM. In the case of `CC(C)(CNC(=O)C(=O)Nc1cccc(-c2ccc(Cl)cc2)c1)CNC(=O)c1ccc(Nc2nc(NC3(c4ccc(Cl)cc4)CC3)nc(OCC(F)(F)F)n2)cc1` [Compound 1586], the EC50 under setting [1] was in the range of 0.01 to 10 nM. The same measure, in the same setting: with `O=C(NC[C@H](NC(=O)c1ccc(Nc2nc(NC3(c4ccc(Cl)cc4)CC3)nc(OCC(F)(F)F)n2)cc1)C(=O)O)C(=O)Nn1cnnc1` [Compound 1350] the figure was 10 to 1000 nM. Take `COC(=O)[C@H](CCNC(=O)C(=O)Nc1ccc(-c2ccc(-c3ccccc3)cc2)cc1)NC(=O)c1ccc(Nc2nc(NC3(c4ccc(Cl)cc4)CC3)nc(OCC(F)(F)F)n2)cc1` [Compound 1527]: the EC50 runs as follows: under setting [4], 0.15 nM; under setting [1], 0.01 to 10 nM. For the molecule `NC(=O)C(=O)N(CCO)CCCNC(=O)c1ccc(Nc2nc(NC3(c4ccc(Cl)cc4)CC3)nc(OCC(F)(F)F)n2)cc1` [Compound 3498], the EC50 under setting [3] fell in the range of 0.01 to 10 nM. The same measure, in the same setting: with `COC(=O)[C@@H](CCNC(=O)C(=O)Nc1ccc(Oc2ccc(C(C)(C)C)cc2)nc1)NC(=O)c1ccc(Nc2nc(NC3(c4ccc(Cl)cc4)CC3)nc(OCC(F)(F)F)n2)cc1` [Compound 3581] the figure was 0.01 to 10 nM.
